From US10597388B2, “Pyridazinone herbicides” (FMC CORPORATION, priority 2014, dated 2020)

Assays:
Assay type in all cases: in vivo
[1] = tested on: barnyardgrass (Echinochloa crus-galli); assay: Test A greenhouse herbicide test, pre- and postemergence
Method in brief: (§1)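 Visual injury ratings, 0 (no effect) to 100 (complete control), versus untreated plants after roughly 10 d in a greenhouse. Compounds, formulated in a surfactant-containing non-phytotoxic solvent, were sprayed on loam–sand soil after sowing (pre) or on one- to two-leaf plants 2–10 cm tall (post).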

kochia (Kochia scoparia) = assay: as above
Method in brief: as §1

corn (Zea mays) = assay: Test C greenhouse herbicide test, pre- and postemergence
Method in brief: (§2)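 Visual 0–100 injury score (100 = complete control) taken against untreated controls after 13–15 d in greenhouse. Test chemicals, formulated in solvent plus surfactant, applied preemergence to seeds in loam–sand soil or postemergence to 1- to 4-leaf plants (2–18 cm).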

[2] = tested on: crabgrass, large (large crabgrass, Digitaria sanguinalis); assay: as above
Method in brief: as §2

[3] = tested on: foxtail, giant (giant foxtail, Setaria faberii); assay: as above
Method in brief: as §2

[4] = tested on: johnsongrass (Sorghum halepense); assay: as above
Method in brief: as §2

[5] = tested on: lambsquarters (Chenopodium album); assay: as above
Method in brief: as §2

[6] = tested on: morningglory (Ipomoea coccinea); assay: as above
Method in brief: as §2

[7] = tested on: oilseed rape (Brassica napus); assay: as above
Method in brief: as §2

[8] = tested on: waterhemp (common waterhemp, Amaranthus rudis); assay: as above
Method in brief: as §2

[9] = tested on: wheat (winter wheat, Triticum aestivum); assay: as above
Method in brief: as §2

[10] = Postemergence, 125 g ai/ha, 0 to 100 scale where 0 is no effect and 100 is complete control
[11] = Preemergence, 125 g ai/ha, 0 to 100 scale where 0 is no effect and 100 is complete control
[12] = Preemergence, 500 g ai/ha, 0 to 100 scale where 0 is no effect and 100 is complete control
[13] = Postemergence, 31 g ai/ha, scale 0 to 100 (0 no effect, 100 complete control)
[14] = Postemergence, 125 g ai/ha, scale 0 to 100, 0 is no effect, 100 is complete control
[15] = Postemergence, 250 g ai/ha, scale 0 to 100, 0 no effect, 100 complete control, 13 to 15 d
[16] = Preemergence, 31 g ai/ha, scale 0 to 100, 0 is no effect, 100 is complete control
[17] = Preemergence, 62 g ai/ha, scale 0 to 100, 0 is no effect, 100 is complete control
[18] = Preemergence, 125 g ai/ha, scale 0 to 100, 0 is no effect, 100 is complete control
[19] = Preemergence, 250 g ai/ha, scale 0 to 100, 0 no effect, 100 complete control
[20] = postemergence, 62 g ai/ha, scale 0 to 100, 0 no effect, 100 complete control

Cc1ccc2ccccc2c1-c1c(O)c(C(F)(F)F)nn(C)c1=O [Compound 102]
Plant response rating, Barnyardgrass [1, 10]: 40 | Barnyardgrass plant response rating ([1]; Postemergence, 500 g ai/ha, 0 to 100 scale, 0 is no effect, 100 is complete control): 90 | Barnyardgrass plant response rating [1, 11]: 40 | Plant response rating, Barnyardgrass [1, 12]: 60 | Plant response rating, Kochia (kochia (Kochia scoparia); [10]): 20 | Plant response rating, Kochia (kochia (Kochia scoparia); Postemergence, 500 g ai/ha, visual rating after approx. 10 d, 0 to 100 scale (0 no effect, 100 complete control)): 40 | Kochia plant response rating (kochia (Kochia scoparia); [11]): 10 | Plant response rating, Kochia (kochia (Kochia scoparia); [12]): 30 | Plant response rating, Corn (corn (Zea mays); [13]): 0 | Plant response rating, Corn (corn (Zea mays); [14]): 10 | Plant response rating, Corn (corn (Zea mays); [15]): 10 | Plant response rating, Corn (corn (Zea mays); [16]): 5 | Plant response rating, Corn (corn (Zea mays); [17]): 10 | Plant response rating, Corn (corn (Zea mays); [18]): 20 | Corn plant response rating (corn (Zea mays); [19]): 30 | Corn plant response rating (corn (Zea mays); [20]): 0 | Plant response rating, Crabgrass, Large [2, 13]: 5 | Plant response rating, Crabgrass, Large [2, 14]: 20 | Plant response rating, Crabgrass, Large [2, 15]: 15 | Plant response rating, Crabgrass, Large [2, 16]: 0 | Plant response rating, Crabgrass, Large [2, 17]: 5 | Plant response rating, Crabgrass, Large [2, 18]: 30 | Crabgrass, Large plant response rating [2, 19]: 55 | Crabgrass, Large plant response rating [2, 20]: 10 | Plant response rating, Foxtail, Giant [3, 13]: 20 | Plant response rating, Foxtail, Giant [3, 14]: 60 | Plant response rating, Foxtail, Giant [3, 15]: 75 | Plant response rating, Foxtail, Giant [3, 16]: 30 | Plant response rating, Foxtail, Giant [3, 17]: 75 | Plant response rating, Foxtail, Giant [3, 18]: 85 | Foxtail, Giant plant response rating [3, 19]: 90 | Plant response rating, Johnsongrass [4, 13]: 0 | Plant response rating, Johnsongrass [4, 14]: 0 | Plant response rating, Johnsongrass [4, 15]: 10 | Plant response rating, Johnsongrass [4, 16]: 0 | Plant response rating, Johnsongrass [4, 17]: 0 | Plant response rating, Johnsongrass [4, 18]: 0 | Johnsongrass plant response rating [4, 19]: 0 | Plant response rating, Lambsquarters [5, 13]: 75 | Plant response rating, Lambsquarters [5, 14]: 70 | Plant response rating, Lambsquarters [5, 15]: 100 | Plant response rating, Lambsquarters [5, 16]: 70 | Plant response rating, Lambsquarters [5, 17]: 85 | Plant response rating, Lambsquarters [5, 18]: 85 | Lambsquarters plant response rating [5, 19]: 100 | Plant response rating, Morningglory [6, 13]: 100 | Plant response rating, Morningglory [6, 14]: 100 | Plant response rating, Morningglory [6, 15]: 100 | Plant response rating, Morningglory [6, 16]: 45 | Plant response rating, Morningglory [6, 17]: 75 | Plant response rating, Morningglory [6, 18]: 85 | Morningglory plant response rating [6, 19]: 98 | Plant response rating, Oilseed Rape [7, 13]: 0 | Plant response rating, Oilseed Rape [7, 14]: 5 | Plant response rating, Oilseed Rape [7, 15]: 30 | Plant response rating, Oilseed Rape [7, 16]: 0 | Plant response rating, Oilseed Rape [7, 17]: 10 | Plant response rating, Oilseed Rape [7, 18]: 10 | Oilseed Rape plant response rating [7, 19]: 35 | Plant response rating, Waterhemp [8, 13]: 25 | Plant response rating, Waterhemp [8, 14]: 80 | Plant response rating, Waterhemp [8, 15]: 85 | Plant response rating, Waterhemp [8, 16]: 75 | Plant response rating, Waterhemp [8, 17]: 65 | Plant response rating, Waterhemp [8, 18]: 75 | Waterhemp plant response rating [8, 19]: 85 | Plant response rating, Wheat [9, 13]: 0 | Plant response rating, Wheat [9, 14]: 5 | Plant response rating, Wheat [9, 15]: 5 | Plant response rating, Wheat [9, 16]: 0 | Plant response rating, Wheat [9, 17]: 5 | Wheat plant response rating [9, 19]: 25
